{"source": "patent US10927348B2", "about": "“Human adipose tissue white and ‘brown-on-white’ progenitors for reconstructive and metabolic therapies” (University of Massachusetts, priority 2014, dated 2021)", "system": "differentiated HACAPS", "test": "RT-PCR gene expression in differentiated HACAPS exposed to forskolin or isoproterenol", "format": "cell-based, human", "settings": "isoproterenol for 6 hours after adipogenic differentiation, hydrochloride", "note": "Entries after “also recorded” stand apart in the source; their conditions may differ. Structures can show the parent of a compound that is named as a salt.", "data": [{"compound": "CC(C)NCC(O)c1ccc(O)c(O)c1", "note": "(stereo not shown) [isoproterenol, Isoproterenol hydrochloride]", "values": [{"measurement": "UCP1 mRNA expression", "value": "acute increase; also recorded: pronounced increase"}]}]}
